Laboratory results taken from patent US20120316199A1, “COMPOSITIONS AND METHODS FOR TREATING, CONTROLLING, REDUCING, OR AMELIORATING INFLAMMATORY PAIN” (priority 2011, published 2012).

What was measured:
[1] = test system: intraocular pressure (IOP); assay: Intraocular pressure in New Zealand White rabbits, topical dosing four times daily; format: in vivo; settings: untreated left eyes
Description: On Days 1-31, animals received daily topical doses of the appropriate test article into the right eye. Animals were dosed four times per day, with doses administered 2 hours apart. Doses were administered using a calibrated 50-μL pipette. The eyelids were held close for 10 seconds immediately following dosing. The time of each dose administration was recorded.
Intraocular pressure (“IOP”) was determined for both eyes of each animal on Days 3, 5, 10, 12, 16, 18, 22, 24, 26, 30, and 32. IOP was evaluated with a Medtronic Solan, Model 30 classic pneumatonometer. Proparacaine hydrochloride 0.5% (1 drop) was delivered to each eye prior to IOP measurement. IOP was measured on Monday. Wednesday, and Friday of each week. A two-point diurnal curve was established: IOP was recorded at 8 a.m. and 12 p.m. on Day 3, and at 8 a.m. and 2 p.m. on later days, with a ±1 hour range for each of these times. The time of the measurements was recorded.
Descriptive statistics were prepared for IOP data of each treatment group (left and right eyes separately) at each measurement interval. The statistics included the number of observations (“N”) mean, standard deviation (“STD”), and standard error (“SEM”). Statistical analyses were conducted on IOP results using Statistical Analysis Systems (SAS Institute. Inc., Cary, N.C. V8.0). Parameters were evaluated using analysis of variance/GLM Procedure followed by Tukey's Standardized Range Test (Tukey, 1985) for post hoc comparisons of group means. The level of significance was set at a probability of p<0.05 for all statistical procedures. Group IOP means were compared at each interval, with left and right eyes compared separately.

[2] = test system: PGE2 release by IL-1β-induced human conjunctival fibroblasts (HConF); assay: IL-1β-induced PGE2 release in human conjunctival fibroblasts (ELISA); format: cell-based; settings: 3, 10, 30, 100, 300, 1000 nM, 18 hours; ELISA (FIG. 6)
Description: Human conjunctival fibroblasts (HConF) were seeded in 24-well plates in complete Fibroblast Medium (FM) which contained 2% fetal bovine serum (FBS) and Fibroblast Growth Supplement (FGS). After reaching confluence (about 95%), cells were conditioned in basic FM that had been supplemented with 0.5% charcoal-dextran treated fetal bovine serum (CD-FBS) and without Fibroblast Growth Supplement (FGS) for 24 hours. […] Plates were performed in triplicate. Culture media were evaluated for PGE, release by ELISA.

SMILES: Cc1ccc2c(NC[C@](O)(CC(C)(C)c3cc(F)cc4c3OCC4)C(F)(F)F)cccc2n1 [BOL-303242-X, mapracorat]
- Intraocular Pressure, MEAN ([1]; A.M. readings, Day 16, 5 mg/g (Group C)): 23.4 mmHg
- Intraocular Pressure, MEAN ([1]; A.M. readings, Day 16, 10 mg/g (Group B)): 22.9 mmHg
- Intraocular Pressure, MEAN ([1]; A.M. readings, Day 18, 1 mg/g (Group D)): 23.3 mmHg
- Intraocular Pressure, MEAN ([1]; A.M. readings, Day 18, 5 mg/g (Group C)): 21.9 mmHg
- Intraocular Pressure, MEAN ([1]; A.M. readings, Day 18, 10 mg/g (Group B)): 21.2 mmHg
- Intraocular Pressure, MEAN ([1]; A.M. readings, Day 22, 1 mg/g (Group D)): 22.4 mmHg
- Intraocular Pressure, MEAN ([1]; A.M. readings, Day 22, 5 mg/g (Group C)): 21.6 mmHg
- Intraocular Pressure, MEAN ([1]; A.M. readings, Day 22, 10 mg/g (Group B)): 21.8 mmHg
- Intraocular Pressure, MEAN ([1]; A.M. readings, Day 24, 1 mg/g (Group D)): 22.4 mmHg
- Intraocular Pressure, MEAN ([1]; A.M. readings, Day 24, 5 mg/g (Group C)): 22.1 mmHg
- Intraocular Pressure, MEAN ([1]; A.M. readings, Day 24, 10 mg/g (Group B)): 20.2 mmHg
- Intraocular Pressure, MEAN ([1]; A.M. readings, Day 26, 1 mg/g (Group D)): 22.9 mmHg
- Intraocular Pressure, MEAN ([1]; A.M. readings, Day 26, 5 mg/g (Group C)): 21.7 mmHg
- Intraocular Pressure, MEAN ([1]; A.M. readings, Day 26, 10 mg/g (Group B)): 21.7 mmHg
- Intraocular Pressure, MEAN ([1]; A.M. readings, Day 30, 1 mg/g (Group D)): 23.4 mmHg
- Intraocular Pressure, MEAN ([1]; A.M. readings, Day 30, 5 mg/g (Group C)): 22.6 mmHg
- Intraocular Pressure, MEAN ([1]; A.M. readings, Day 30, 10 mg/g (Group B)): 22.7 mmHg
- Intraocular Pressure, MEAN ([1]; A.M. readings, Day 32, 1 mg/g (Group D)): 24.1 mmHg
- Intraocular Pressure, MEAN ([1]; A.M. readings, Day 32, 5 mg/g (Group C)): 23.1 mmHg
- Intraocular Pressure, MEAN ([1]; A.M. readings, Day 32, 10 mg/g (Group B)): 22.9 mmHg
- Intraocular Pressure, MEAN ([1]; A.M. readings, Pre-Study, 1 mg/g (Group D)): 23.9 mmHg
- Intraocular Pressure, MEAN ([1]; A.M. readings, Pre-Study, 5 mg/g (Group C)): 24.2 mmHg
- Intraocular Pressure, MEAN ([1]; A.M. readings, Pre-Study, 10 mg/g (Group B)): 23.8 mmHg
- Intraocular Pressure, MEAN ([1]; P.M. readings, Day 3, 1 mg/g (Group D)): 25.0 mmHg
- Intraocular Pressure, MEAN ([1]; P.M. readings, Day 3, 5 mg/g (Group C)): 23.9 mmHg
- Intraocular Pressure, MEAN ([1]; P.M. readings, Day 3, 10 mg/g (Group B)): 23.3 mmHg
- Intraocular Pressure, MEAN ([1]; P.M. readings, Day 5, 1 mg/g (Group D)): 24.7 mmHg
- Intraocular Pressure, MEAN ([1]; P.M. readings, Day 5, 5 mg/g (Group C)): 24.8 mmHg
- Intraocular Pressure, MEAN ([1]; P.M. readings, Day 5, 10 mg/g (Group B)): 25.2 mmHg
- Intraocular Pressure, MEAN ([1]; P.M. readings, Day 10, 1 mg/g (Group D)): 24.9 mmHg
- Intraocular Pressure, MEAN ([1]; P.M. readings, Day 10, 5 mg/g (Group C)): 24.6 mmHg
- Intraocular Pressure, MEAN ([1]; P.M. readings, Day 10, 10 mg/g (Group B)): 23.5 mmHg
- Intraocular Pressure, MEAN ([1]; P.M. readings, Day 12, 1 mg/g (Group D)): 23.7 mmHg
- Intraocular Pressure, MEAN ([1]; P.M. readings, Day 12, 5 mg/g (Group C)): 23.3 mmHg
- Intraocular Pressure, MEAN ([1]; P.M. readings, Day 12, 10 mg/g (Group B)): 24.1 mmHg
- Intraocular Pressure, MEAN ([1]; P.M. readings, Day 16, 1 mg/g (Group D)): 21.9 mmHg
- Intraocular Pressure, MEAN ([1]; P.M. readings, Day 16, 5 mg/g (Group C)): 20.4 mmHg
- Intraocular Pressure, MEAN ([1]; P.M. readings, Day 16, 10 mg/g (Group B)): 21.4 mmHg
- Intraocular Pressure, MEAN ([1]; P.M. readings, Day 18, 1 mg/g (Group D)): 22.7 mmHg
- Intraocular Pressure, MEAN ([1]; P.M. readings, Day 18, 5 mg/g (Group C)): 21.9 mmHg
- Intraocular Pressure, MEAN ([1]; P.M. readings, Day 18, 10 mg/g (Group B)): 22.1 mmHg
- Intraocular Pressure, MEAN ([1]; P.M. readings, Day 22, 1 mg/g (Group D)): 22.1 mmHg
- Intraocular Pressure, MEAN ([1]; P.M. readings, Day 22, 5 mg/g (Group C)): 22.1 mmHg
- Intraocular Pressure, MEAN ([1]; P.M. readings, Day 22, 10 mg/g (Group B)): 22.6 mmHg
- Intraocular Pressure, MEAN ([1]; P.M. readings, Day 24, 1 mg/g (Group D)): 22.9 mmHg
- Intraocular Pressure, MEAN ([1]; P.M. readings, Day 24, 5 mg/g (Group C)): 22.2 mmHg
- Intraocular Pressure, MEAN ([1]; P.M. readings, Day 24, 10 mg/g (Group B)): 22.8 mmHg
- Intraocular Pressure, MEAN ([1]; P.M. readings, Day 26, 1 mg/g (Group D)): 22.1 mmHg
- Intraocular Pressure, MEAN ([1]; P.M. readings, Day 26, 5 mg/g (Group C)): 22.3 mmHg
- Intraocular Pressure, MEAN ([1]; P.M. readings, Day 26, 10 mg/g (Group B)): 21.4 mmHg
- Intraocular Pressure, MEAN ([1]; P.M. readings, Day 30, 10 mg/g (Group B)): 21.7 mmHg
- Inhibition of PGE2 production by IL-1β-induced HConF [2]: successfully inhibits
